The values below come from patent US20030129222A1, “Liposomal imexon” (priority 2000, published 2003).

The term IC50 denotes the concentration at which inhibition is half-maximal.

Molecules are shown by their SMILES. Structures can show the parent of a compound that is named as a salt. Where two headings read alike, the source gives them in different places. Starred links: 1 amine or outer side, 2 acyl side, 3 side chain; linkers in the order of their positions; H or OH if unused. Positions of bridges follow the written chain, without caps; N, C: chain ends. Non-standard residues stand in square brackets, D forms with d. Residues, ends and D or L forms follow the SMILES beside them. Chains are numbered I, II in the order given. Actinocin(9to1) = Cc1c2oc3c(C)ccc(C(=O)[*:1])c3nc-2c(C(=O)[*:2])c(N)c1=O; NMeV = CN[C@H](C(=O)O)C(C)C; Sar = CNCC(=O)O

For series [1] the following is noted: cited from earlier work.
The test system of the next series is A-549 lung. As to the kind of experiment: Cytotoxicity in tumor cell culture, SRB assay. The format is cell-based, human. The settings on record: read-out: IC50 against human mouse tumors, A-549 lung. The source says:
(§1) Relative potencies of the N-substituted 2-cyanoaziridine-1-carboxamides in a panel of tumor cell cultures are compared in Table 3. This panel includes the following lines of human tumor cells: sensitive and imexon-resistant lines of multiple myeloma (Matsuoka et al., 1967); ovarian carcinoma resistant to standard drugs (Hamilton et al., 1984); melanoma with a slow growth fraction (Girard et al., 1973); breast carcinoma including sensitive, doxorubicin-resistant (P-glycoprotein-positive) (Taylor et al., 1991), and mitoxantrone-resistant (P-glycoprotein-negative) (Futscher et al., 1994) lines; sensitive and multidrug-resistant colon carcinoma (Noguchi et al., 1979; Dalton et al., 1988); and multidrug-resistant lung carcinoma (P-glycoprotein-negative) (Girard et al., 1973). It also has sensitive (Goldin et al., 1961) and multidrug-resistant (P-glycoprotein-positive) (Salmon and Hersh, 1994) murine L1210 leukemia cells.

Series [2] concerns MCF7 breast, mitox (mitoxantrone-resistant). As to the kind of experiment: Cytotoxicity in tumor cell culture, SRB assay. The format is cell-based, human. The settings on record: mitoxantrone-resistant; read-out: IC50 against human mouse tumors, MCF7 breast mitox.
Text: as §1
A general note: Sulforhodamine B stains cellular protein and so reports cell mass.

The test system of series [3] is MCF7 breast, Dox (doxorubicin-resistant). In words: Cytotoxicity in tumor cell culture, SRB assay. The settings on record: doxorubicin-resistant; read-out: IC50 against human mouse tumors, MCF7 breast Dox. The series is classed as cell-based, human.
Text: as §1

The subject of another series is MCF7 breast, Sens. As to the kind of experiment: Cytotoxicity in tumor cell culture, SRB assay. The format is cell-based, human. The settings on record: read-out: IC50 against human mouse tumors, MCF7 breast Sens.
Text: as §1

The next series relates to OVCAR3 ovarian. In words: Cytotoxicity in tumor cell culture, SRB assay. The series is classed as cell-based, human. The settings on record: read-out: IC50 against human mouse tumors, OVCAR3 ovarian.
Text: as §1

For another series, the system named is A375 melan. As to the kind of experiment: Cytotoxicity in tumor cell culture, SRB assay. The format is cell-based, human. The settings on record: read-out: IC50 against human mouse tumors, A375 melan.
Text: as §1

Series [4] relates to 8226 myeloma, Sens (drug-sensitive). As to the kind of experiment: Cytotoxicity in tumor cell culture, SRB assay. The format is cell-based, human.
Text: as §1

The conditions of series [5]: substituent constant, from Hansch and Leo or calculated using Clog P software; cited from earlier work.
For a further series, the system named is L1210 leukemia, Sens. As to the kind of experiment: Cytotoxicity in tumor cell culture, MTT assay. The format is cell-based, murine. The settings on record: MTT assay; read-out: IC50 against human mouse tumors, L1210 leukemia Sens.
Text: as §1
Background: Tetrazolium dyes change colour on reduction, which living cells bring about.

In another series the test system is L1210 leukemia, Mdr. In words: Cytotoxicity in tumor cell culture, MTT assay. The series is classed as cell-based, murine. The settings on record: MTT assay, multidrug-resistant; read-out: IC50 against human mouse tumors, L1210 leukemia Mdr.
Text: as §1

Series [6] concerns 8226 myeloma, Res (imexon-resistant). In words: Cytotoxicity in tumor cell culture, SRB assay. The format is cell-based. The settings on record: line made resistant to imexon; read-out: IC50 against human mouse tumors, 8226 myeloma Res.
Text: as §1

The subject of another series is WiDr colon, res. In words: Cytotoxicity in tumor cell culture, SRB assay. The series is classed as cell-based. The settings on record: multidrug-resistant; read-out: IC50 against human mouse tumors, WiDr colon res.
Text: as §1

For the next series, the system named is WiDr colon, Sens. In words: Cytotoxicity in tumor cell culture, SRB assay. The settings on record: read-out: IC50 against human mouse tumors, WiDr colon Sens. The series is classed as cell-based.
Text: as §1

Setting [7] is: against sensitive myeloma, values repeated from Table 3 (μM there), read-out: IC50.
The mark [8] stands for this setting: drug-sensitive line, read-out: IC50 against human mouse tumors, 8226 myeloma Sens.
[9] abbreviates: single oral doses of about 0.6 mg/kg to about […].
The mark [10] stands for this setting: intravenous injection, after distribution.

With `N.N.[Cl][Pt][Cl]` [Cisplatin], the “oral absorption” value in series [1] (in vivo) was “not absorbed orally”.

On to `CCCCNC(=O)N1CC1C#N` (stereo not shown) [Compound 8, 2-Cyanoaziridine-1-(N-butyl) carboxamide], for which the IC50 in the series with A-549 lung is 18 µM; in [2], over 12 µM; in [3] it was 6.7 µM; with MCF7 breast, Sens, over 12 µM; in the series on OVCAR3 ovarian it was 12 µM; with A375 melan, 15 µM. The IC50 in [4] (setting [7]) is 17 µM; in [4] (setting [8]), 17 µM; in the series on L1210 leukemia, Sens, 12 µM; in the series with L1210 leukemia, Mdr it was 12 µM; in [6] it was 17 µM; in the series on WiDr colon, res it was 18 µM. The IC50 with WiDr colon, Sens is 14 µM. For the same compound, in [4] (against sensitive myeloma), the “Log(1/C)” value is given as 4.77. Besides, the π in series [5] was 2.00.

For `N#CC1CN1C(=O)Nc1ccc(Cl)cc1Cl` (stereo not shown) [Compound 17, 2-Cyanoaziridine-1-[N-(2,4-dichlorophenyl)]carboxamide], the IC50 with A-549 lung is 2.5 µM; in series [2] it was 0.35 µM; in series [3], 1.1 µM; in the series with MCF7 breast, Sens it was 0.9 µM; in the series on OVCAR3 ovarian, 35 µM; with A375 melan it was over 39 µM. For the same compound, the IC50 in [4] (setting [7]) turned out to be 4.7 µM; in [4] (setting [8]) it was 4.7 µM; in the series on L1210 leukemia, Sens, 207 µM; with L1210 leukemia, Mdr, 33 µM; in series [6], 9.4 µM; in the series with WiDr colon, res it was 1.9 µM. Also, in the series on WiDr colon, Sens, the IC50 worked out at 2.2 µM. Moreover, the “Log(1/C)” value in [4] (against sensitive myeloma) came out at 5.33. Moreover, the π in series [5] is reported as 3.42.

On to `O=C(O)CCCc1ccc(N(CCCl)CCCl)cc1` [Chlorambucil, 4-[bis(2-chlorethyl)amino] benzenebutanoic acid], for which the “oral absorption” value in series [1] (in vivo) was “rapidly and completely absorbed”. Besides, in [1] (setting [9]), the “terminal half-life of the parent drug” value is given as “about 1.5 hours” and the “time to peak plasma chlorambucil levels” value is reported as “one”.

For `O=NN(CCCl)C(=O)NC1CCCCC1` [Lomustine, 1-(2-chloro-ethyl)-3-cyclohexyl-1 nitrosourea], in [1] (oral radioactive lomustine, about 30 mg/m^2 to 100 mg/m^2), the “radioactivity excreted in the form of degradation products within 24 hours” value is recorded as “about half”.

In the case of `CCOC(=O)CNC(=O)N1CC1C#N` (stereo not shown) [Compound 12], the IC50 in the series with A-549 lung is 24 µM; in [2], 11 µM; in [3] it was 17 µM; with MCF7 breast, Sens it was 15 µM; in the series on A375 melan it was 51 µM; in [4] (setting [7]) it was 25 µM. The IC50 is 25 µM in [4] (setting [8]); 13 µM with L1210 leukemia, Sens; 13 µM in the series on L1210 leukemia, Mdr; 30 µM in series [6]; 33 µM with WiDr colon, res; 31 µM in the series with WiDr colon, Sens. Further, in series [4] (against sensitive myeloma), the “Log(1/C)” value was found to be 4.60. For the same compound, in series [5], the π is reported as 1.01.

For the compound `CC[C@]1(O)C[C@@H]2CN(CCc3c([nH]c4ccccc34)[C@@](C(=O)OC)(c3cc4c(cc3OC)N(C)[C@H]3[C@@](O)(C(=O)OC)[C@H](OC(C)=O)[C@]5(CC)C=CCN6CC[C@]43[C@@H]65)C2)C1` [Vinblastine], in series [1] (in vivo), the “oral absorption” value was “Unpredictable absorption” and the “dose recovered in the feces after biliary excretion” value is “about 10%”. Moreover, in series [1] (setting [10]), the “plasma half-life, first” value is “approximately 1 hours” and the “plasma half-life, second” value was about 20 h.

Regarding `Cc1c2oc3c(C)ccc(C(=O)N[C@@H]4C(=O)N[C@H](C(C)C)C(=O)N5CCC[C@H]5C(=O)N(C)CC(=O)N(C)[C@@H](C(C)C)C(=O)O[C@@H]4C)c3nc-2c(C(=O)N[C@@H]2C(=O)N[C@H](C(C)C)C(=O)N3CCC[C@H]3C(=O)N(C)CC(=O)N(C)[C@@H](C(C)C)C(=O)O[C@@H]2C)c(N)c1=O` [Actinomycin D] (I: T[dV]P[Sar][NMeV] / II: T[dV]P[Sar][NMeV]; ester I:1-I:C, II:1-II:C; linker I:N-II:N via Actinocin(9to1)), in series [1] (in vivo), the “dose excreted intact into the bile” value was “Half”, the “dose excreted intact into the urine” value is recorded as 10%, the half-life entry is “about 36 hours” and the “passage of the blood-brain barrier” value was “does not pass the blood-brain barrier”.

Take `COc1cccc2c1C(=O)c1c(O)c3c(c(O)c1C2=O)C[C@@](O)(C(=O)CO)C[C@@H]3O[C@H]1C[C@H](N)[C@H](O)[C@H](C)O1` [Doxorubicin, 5,12-Naphthacenedione, (8s-cis)-10-[(3-amino-2,3,6-trideoxy-a-L-lyxo-hexopyranosyl)oxy]-7,8,9,10-tetrahydro-6,8,11-trihydroxy-8-(hydroxyacetyl)-1-methoxy-hydrochloride]: in [1] (in vivo), the “oral absorption” value was “absorbed poorly” and the elimination half-life entry is “about 30 hours”.

As to `N#CC1CN1C(=O)Nc1ccc(S(N)(=O)=O)cc1` (stereo not shown) [Compound 22, 2-Cyanoaziridine-1-[N-(4-sulfamylphenyl)]carboxamide], the IC50 with A-549 lung is over 38 µM; in series [2] it was over 15 µM; in [3], over 15 µM; with MCF7 breast, Sens, over 15 µM; in the series on OVCAR3 ovarian, 188 µM; in the series with A375 melan it was 188 µM. For the same compound, the IC50 in [4] (setting [8]) was over 38 µM; in the series with L1210 leukemia, Sens, over 38 µM; in the series on L1210 leukemia, Mdr it was over 38 µM; in [6], over 38 µM; in the series on WiDr colon, res it was over 38 µM; with WiDr colon, Sens, over 38 µM.

For `CC[C@]1(O)C[C@H]2CN(CCc3c([nH]c4ccccc34)[C@@](C(=O)OC)(c3cc4c(cc3OC)N(C=O)[C@H]3[C@@](O)(C(=O)OC)[C@H](OC(C)=O)[C@]5(CC)C=CCN6CC[C@]43[C@@H]65)C2)C1` [Vincristine], the “oral absorption” value in series [1] (in vivo) was “Unpredictable absorption”. For the same compound, in series [1] (plasma), the terminal half-life entry was “about 24 hours”.

Consider `COc1cccc2c1C(=O)c1c(O)c3c(c(O)c1C2=O)C[C@@](O)([C@H](C)O)C[C@@H]3O[C@H]1C[C@H](N)[C@H](O)[C@H](C)O1` [daunorubicinol], for which the “half-life of active metabolite” value in series [1] (metabolite of daunorubicin) is reported as “about 27 hours”.

As for `CCOC(=O)c1ccc(NC(=O)N2CC2C#N)cc1` (stereo not shown) [Compound 19, 2-Cyanoaziridine-1-[N-(4-ethoxycarbonylphenyl)]carboxamide], the IC50 in the series on A-549 lung amounted to 2.9 µM; in series [2], 3.3 µM; in series [3], 2.1 µM; in the series with MCF7 breast, Sens, 2.3 µM; in the series on OVCAR3 ovarian, 7.7 µM; in the series with A375 melan it was 5.8 µM. Besides, the IC50 was 3 µM in [4] (setting [8]); 9.7 µM in the series on L1210 leukemia, Sens; 9.7 µM in the series with L1210 leukemia, Mdr; 3 µM in series [6]; 4.2 µM in the series on WiDr colon, res; 2.5 µM in the series on WiDr colon, Sens.

For `COc1cccc2c1C(=O)c1c(O)c3c(c(O)c1C2=O)C[C@@](O)(C(C)=O)C[C@@H]3O[C@H]1C[C@H](N)[C@H](O)[C@H](C)O1` [Daunorubicin, 5,12-Naphthacenedione, (8S-cis)-8-acetyl-10-[(3-amino-2,3,6-trideoxy-a-L-lyxo-hexanopyranosyl)oxy]-7,8,9,10-tetrahydro-6,8,11-trihydroxy-10-methoxy-, hydrochloride], in series [1] (in vivo), the “oral absorption” value is “poor” and the half-life of elimination result is on record as “about 19 hours”.

With `CC(=O)c1cccc(NC(=O)N2CC2C#N)c1` (stereo not shown) [Compound 20, 2-Cyanoaziridine-1-[N-(3-acetylphenyl)]carboxamide], the IC50 is over 41 µM with A-549 lung; over 16 µM in series [2]; over 16 µM in series [3]; over 16 µM in the series with MCF7 breast, Sens; over 39 µM in the series with OVCAR3 ovarian; over 39 µM with A375 melan. The IC50 in series [4] (setting [8]) was over 39 µM; with L1210 leukemia, Sens, over 39 µM; in the series on L1210 leukemia, Mdr, over 39 µM; in series [6] it was over 39 µM; with WiDr colon, res it was over 41 µM; in the series with WiDr colon, Sens it was 40 µM.
